Results published in US6737383B1, “Herbicidal oxadiazolidines” (priority 1999, dated 2004).

Columns and labels:
purple nutsedge = assay: Test B pre/postemergence purple nutsedge; format: in vivo, Cyperus rotundus; conditions: for Plant response rating, Nutsedge: scale of 0 to 10 where 0 is no effect and 10 is complete control
How it was run: (§1)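 Response is a visual 0-to-10 score relative to untreated plants, where 0 means no effect and 10 means complete control, taken twelve to sixteen days after application. Treatments went onto soil at planting and onto foliage of 1- to 4-leaf plants, using a surfactant-containing non-phytotoxic solvent.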

pigweed = assay: Test B pre/postemergence pigweed; format: in vivo, Amaranthus retroflexus; conditions: for Plant response rating, Redroot pigweed: scale of 0 to 10 where 0 is no effect and 10 is complete control
How it was run: as §1

bedstraw = assay: Test B pre/postemergence bedstraw; format: in vivo, Galium aparine; conditions: Postemergence
How it was run: as §1

sugar beet = assay: Test B pre/postemergence sugar beet; format: in vivo, Beta vulgaris; conditions: for Plant response rating, Sugarbeets: scale of 0 to 10 where 0 is no effect and 10 is complete control
How it was run: as §1

bamyardgrass = assay: Test B flood test barnyardgrass; format: in vivo, Echinochloa crus-galli
How it was run: (§2)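 Each value is a visual injury score relative to controls, with 10 meaning complete control and 0 no effect. Evaluation took place twelve to sixteen days after the 2-leaf-stage plants were treated and kept in the greenhouse.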

soybean = assay: Test B pre/postemergence soybean; format: in vivo, Glycine max; conditions: for Plant response rating, Soybean: scale of 0 to 10 where 0 is no effect and 10 is complete control
How it was run: as §1

smallflower flatsedge = assay: Test B flood test smallflower flatsedge; format: in vivo, Cyperus difformis
How it was run: as §2

corn = assay: Test B pre/postemergence corn; format: in vivo, Zea mays
How it was run: as §1

velvetleaf = assay: Test B pre/postemergence velvetleaf; format: in vivo, Abutilon theophrasti; conditions: for Plant response rating, Velvetleaf: scale of 0 to 10 where 0 is no effect and 10 is complete control
How it was run: as §1

crabgrass = assay: Test B pre/postemergence crabgrass; format: in vivo, Digitaria sanguinalis
How it was run: as §1

rape = assay: Test B pre/postemergence rape; format: in vivo, Brassica napus; conditions: for Plant response rating, Rape: scale of 0 to 10 where 0 is no effect and 10 is complete control
How it was run: as §1

wheat = assay: Test B pre/postemergence wheat; format: in vivo, Triticum aestivum; conditions: for Plant response rating, Wheat: scale of 0 to 10 where 0 is no effect and 10 is complete control
How it was run: as §1

surinam grass = assay: Test B pre/postemergence surinam grass; format: in vivo, Brachiaria decumbens
How it was run: as §1

wild oat = assay: Test B pre/postemergence wild oat; format: in vivo, Avena fatua; conditions: for Plant response rating, Wild oats: scale of 0 to 10 where 0 is no effect and 10 is complete control
How it was run: as §1

cocklebur = assay: Test B pre/postemergence cocklebur; format: in vivo, Xanthium strumarium
How it was run: as §1

blackgrass = assay: Test B pre/postemergence blackgrass; format: in vivo, Alopecurus myosuroides
How it was run: as §1

[1] = Postemergence, Rate 250 g/ha, scale 0 to 10
[2] = Preemergence, Rate 500 g/ha, scale 0 to 10, 0 is no effect, 10 is complete control
[3] = Rate 62 g/ha, Postemergence, scale 0 to 10, 0 no effect, 10 complete control
[4] = Rate 125 g/ha, Postemergence, scale 0 to 10, 0 is no effect, 10 is complete control
[5] = Preemergence, Rate 250 g/ha, scale 0 to 10, 0 is no effect, 10 is complete control
[6] = Rate 62 g/ha, flood test species, Pre-emergence, visual evaluation after twelve to sixteen days
[7] = Rate 125 g/ha, under heading Pre-emergence, flood test species, visual evaluation after twelve to sixteen days
[8] = Rate 250 g/ha, Pre-emergence (flood test species), scale 0 to 10, 0 is no effect, 10 is complete control
[9] = Rate 500 g/ha, Pre-emergence, flood test species, scale 0 to 10 (0 no effect, 10 complete control)
[10] = Postemergence, Rate 500 g/ha, scale of 0 to 10 where 0 is no effect and 10 is complete control
[11] = Preemergence, Rate 62 g/ha, scale of 0 to 10 where 0 is no effect and 10 is complete control
[12] = Preemergence, Rate 125 g/ha, scale of 0 to 10 where 0 is no effect and 10 is complete control

CC(C)N(C(=O)n1oc(=O)n(C(C)C#N)c1=O)c1ccc(Cl)cc1 (stereo not drawn) [Compound 451]
7: Crabgrass plant response rating (crabgrass; [2])
4: Crabgrass plant response rating (crabgrass; [1])
2: B. signalgrass plant response rating (surinam grass; [10]) | Blackgrass plant response rating (blackgrass; [1])
6: Crabgrass plant response rating (crabgrass; [10]) | Blackgrass plant response rating (blackgrass; [10])
1: Soybean plant response rating (soybean; [1]) | Soybean plant response rating (soybean; [4]) | Crabgrass plant response rating (crabgrass; [5])
0: Nutsedge plant response rating (purple nutsedge; [1]) | Plant response rating, Nutsedge (purple nutsedge; Preemergence, Rate 62 g/ha) | Plant response rating, Nutsedge (purple nutsedge; Preemergence, Rate 125 g/ha) | Nutsedge plant response rating (purple nutsedge; [2]) | Nutsedge plant response rating (purple nutsedge; [3]) | Nutsedge plant response rating (purple nutsedge; [4]) | Redroot pigweed plant response rating (pigweed; [1]) | Plant response rating, Redroot pigweed (pigweed; Preemergence, Rate 62 g/ha) | Plant response rating, Redroot pigweed (pigweed; Preemergence, Rate 125 g/ha) | Redroot pigweed plant response rating (pigweed; [5]) | Redroot pigweed plant response rating (pigweed; [2]) | Redroot pigweed plant response rating (pigweed; [3]) | Redroot pigweed plant response rating (pigweed; [4]) | Bedstraw plant response rating (bedstraw; Rate 62 g/ha, scale 0 to 10, 0 no effect, 10 complete control) | Bedstraw plant response rating (bedstraw; Rate 125 g/ha, scale 0 to 10, 0 is no effect, 10 is complete control) | Sugarbeets plant response rating (sugar beet; [1]) | Plant response rating, Sugarbeets (sugar beet; Preemergence, Rate 62 g/ha) | Plant response rating, Sugarbeets (sugar beet; Preemergence, Rate 125 g/ha) | Sugarbeets plant response rating (sugar beet; [5]) | Sugarbeets plant response rating (sugar beet; [2]) | Sugarbeets plant response rating (sugar beet; [3]) | Sugarbeets plant response rating (sugar beet; [4]) | Plant response rating, Barnyardgrass (0 to 10 scale, 0 is no effect, 10 is complete control) (bamyardgrass; [6]) | Barnyardgrass plant response rating (0 to 10 scale, 0 is no effect, 10 is complete control) (bamyardgrass; [7]) | Barnyardgrass plant response rating (bamyardgrass; [8]) | Barnyardgrass plant response rating (bamyardgrass; [9]) | Plant response rating, Soybean (soybean; Preemergence, Rate 62 g/ha) | Plant response rating, Soybean (soybean; Preemergence, Rate 125 g/ha) | Soybean plant response rating (soybean; [5]) | Soybean plant response rating (soybean; [2]) | Soybean plant response rating (soybean; [3]) | Plant response rating, S. Flatsedge (0 to 10 scale, 0 is no effect, 10 is complete control) (smallflower flatsedge; [6]) | S. Flatsedge plant response rating (0 to 10 scale, 0 is no effect, 10 is complete control) (smallflower flatsedge; [7]) | S. Flatsedge plant response rating (smallflower flatsedge; [8]) | S. Flatsedge plant response rating (smallflower flatsedge; [9]) | Corn plant response rating (corn; [1]) | Corn plant response rating (corn; [10]) | Plant response rating, Corn (corn; [11]) | Plant response rating, Corn (corn; [12]) | Corn plant response rating (corn; [5]) | Corn plant response rating (corn; [2]) | Corn plant response rating (corn; [3]) | Corn plant response rating (corn; [4]) | Velvetleaf plant response rating (velvetleaf; [1]) | Plant response rating, Velvetleaf (velvetleaf; Preemergence, Rate 62 g/ha) | Plant response rating, Velvetleaf (velvetleaf; Preemergence, Rate 125 g/ha) | Velvetleaf plant response rating (velvetleaf; [5]) | Velvetleaf plant response rating (velvetleaf; [2]) | Velvetleaf plant response rating (velvetleaf; [3]) | Velvetleaf plant response rating (velvetleaf; [4]) | Plant response rating, Crabgrass (crabgrass; [11]) | Plant response rating, Crabgrass (crabgrass; [12]) | Crabgrass plant response rating (crabgrass; [3]) | Crabgrass plant response rating (crabgrass; [4]) | Rape plant response rating (rape; [1]) | Plant response rating, Rape (rape; Preemergence, Rate 62 g/ha) | Plant response rating, Rape (rape; Preemergence, Rate 125 g/ha) | Rape plant response rating (rape; [5]) | Rape plant response rating (rape; [2]) | Rape plant response rating (rape; [3]) | Rape plant response rating (rape; [4]) | Wheat plant response rating (wheat; [1]) | Plant response rating, Wheat (wheat; Preemergence, Rate 62 g/ha) | Plant response rating, Wheat (wheat; Preemergence, Rate 125 g/ha) | Wheat plant response rating (wheat; [5]) | Wheat plant response rating (wheat; [2]) | Wheat plant response rating (wheat; [3]) | Wheat plant response rating (wheat; [4]) | B. signalgrass plant response rating (surinam grass; Postemergence, Rate 250 g/ha, scale 0 to 10, 0 no effect, 10 complete control) | Plant response rating, B. signalgrass (surinam grass; [11]) | Plant response rating, B. signalgrass (surinam grass; [12]) | B. signalgrass plant response rating (surinam grass; [5]) | B. signalgrass plant response rating (surinam grass; [2]) | B. signalgrass plant response rating (surinam grass; [3]) | B. signalgrass plant response rating (surinam grass; [4]) | Wild oats plant response rating (wild oat; [1]) | Plant response rating, Wild oats (wild oat; Preemergence, Rate 62 g/ha) | Plant response rating, Wild oats (wild oat; Preemergence, Rate 125 g/ha) | Wild oats plant response rating (wild oat; [5]) | Wild oats plant response rating (wild oat; [2]) | Wild oats plant response rating (wild oat; [3]) | Wild oats plant response rating (wild oat; [4]) | Cocklebur plant response rating (cocklebur; [1]) | Cocklebur plant response rating (cocklebur; [10]) | Plant response rating, Cocklebur (cocklebur; [11]) | Plant response rating, Cocklebur (cocklebur; [12]) | Cocklebur plant response rating (cocklebur; [5]) | Cocklebur plant response rating (cocklebur; [2]) | Cocklebur plant response rating (cocklebur; [3]) | Cocklebur plant response rating (cocklebur; [4]) | Plant response rating, Blackgrass (blackgrass; [11]) | Plant response rating, Blackgrass (blackgrass; [12]) | Blackgrass plant response rating (blackgrass; [5]) | Blackgrass plant response rating (blackgrass; [2]) | Blackgrass plant response rating (blackgrass; [3]) | Blackgrass plant response rating (blackgrass; [4])
